Reference: PubChem BioAssay (NCI)
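The compound was tested at five concentrations on cells cultured in 96-well plates, with a 48-hour exposure period. TGI: concentration producing complete growth inhibition.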

The compounds below were run on MCF7 breast (assay: NCI-60 cell line screen, 48 h).

Row | SMILES | TGI [µM]
1 | CCOc1ccc(/C=C2/C(=O)N=C(NC(C)=O)N2C)cc1 | > 100

The compounds below were run on NCI-H460 lung (assay: NCI-60 cell line screen, 48 h).

Row | SMILES | TGI [µM]
2 | Cc1nc2sc3ccccc3n2c(=O)c1N=Nc1ccc(Cl)cc1 | > 100
3 | O=C1O[C@H](c2ccc3c(c2)OCO3)[C@H]2CO[C@@H](c3ccc4c(c3)OCO4)[C@@H]12 | > 100
4 | Cc1ccc2c(c1)C(=O)C1(C2)Cc2cccc(C)c2C1=O (configuration not stated) | > 100
5 | O=C1NC(=O)C(CC2CCCCCCCCCCC2=O)C(=O)N1 (configuration not stated) | > 100
6 | Nc1ccc(S(=O)(=O)Nc2nccs2)cc1 | > 100
7 | CCOc1ccc(/C=C2/C(=O)N=C(NC(C)=O)N2C)cc1 | > 100

The compounds below were run on SN12C renal (assay: NCI-60 cell line screen, 48 h).

Row | SMILES | TGI [µM]
8 | Cc1nc2sc3ccccc3n2c(=O)c1N=Nc1ccc(Cl)cc1 | > 100
9 | O=C1O[C@H](c2ccc3c(c2)OCO3)[C@H]2CO[C@@H](c3ccc4c(c3)OCO4)[C@@H]12 | > 100
10 | Cc1ccc2c(c1)C(=O)C1(C2)Cc2cccc(C)c2C1=O (configuration not stated) | > 100
11 | O=C1NC(=O)C(CC2CCCCCCCCCCC2=O)C(=O)N1 (configuration not stated) | > 100
12 | Cc1cc(NCc2ccccc2)c2ccccc2[n+]1CCCCCCCCCC[n+]1c(C)cc(NCc2ccccc2)c2ccccc21 | 1.08
13 | Nc1ccc(S(=O)(=O)Nc2nccs2)cc1 | > 100
14 | CCOc1ccc(/C=C2/C(=O)N=C(NC(C)=O)N2C)cc1 | > 100

The compounds below were run on BT-549 breast (assay: NCI-60 cell line screen, 48 h).

Row | SMILES | TGI [µM]
15 | Cc1nc2sc3ccccc3n2c(=O)c1N=Nc1ccc(Cl)cc1 | > 100
16 | O=C1O[C@H](c2ccc3c(c2)OCO3)[C@H]2CO[C@@H](c3ccc4c(c3)OCO4)[C@@H]12 | > 100
17 | O=C1NC(=O)C(CC2CCCCCCCCCCC2=O)C(=O)N1 (configuration not stated) | > 100
18 | Cc1cc(NCc2ccccc2)c2ccccc2[n+]1CCCCCCCCCC[n+]1c(C)cc(NCc2ccccc2)c2ccccc21 | 1.98
19 | Nc1ccc(S(=O)(=O)Nc2nccs2)cc1 | > 100
20 | CCOc1ccc(/C=C2/C(=O)N=C(NC(C)=O)N2C)cc1 | > 100

Each compound was assayed on SK-MEL-2 melanoma (assay: NCI-60 cell line screen, 48 h).

Row | SMILES | TGI [µM]
21 | Cc1nc2sc3ccccc3n2c(=O)c1N=Nc1ccc(Cl)cc1 | > 100
22 | O=C1O[C@H](c2ccc3c(c2)OCO3)[C@H]2CO[C@@H](c3ccc4c(c3)OCO4)[C@@H]12 | > 100
23 | O=C1NC(=O)C(CC2CCCCCCCCCCC2=O)C(=O)N1 (configuration not stated) | > 100
24 | Cc1cc(NCc2ccccc2)c2ccccc2[n+]1CCCCCCCCCC[n+]1c(C)cc(NCc2ccccc2)c2ccccc21 | 2.08
25 | Nc1ccc(S(=O)(=O)Nc2nccs2)cc1 | > 100
26 | CCOc1ccc(/C=C2/C(=O)N=C(NC(C)=O)N2C)cc1 | > 100

These compounds were tested on A549 NSCLC (assay: NCI-60 cell line screen, 48 h).

Row | SMILES | TGI [µM]
27 | Cc1nc2sc3ccccc3n2c(=O)c1N=Nc1ccc(Cl)cc1 | > 100
28 | O=C1O[C@H](c2ccc3c(c2)OCO3)[C@H]2CO[C@@H](c3ccc4c(c3)OCO4)[C@@H]12 | > 100
29 | Cc1ccc2c(c1)C(=O)C1(C2)Cc2cccc(C)c2C1=O (configuration not stated) | > 100
30 | O=C1NC(=O)C(CC2CCCCCCCCCCC2=O)C(=O)N1 (configuration not stated) | > 100
31 | Cc1cc(NCc2ccccc2)c2ccccc2[n+]1CCCCCCCCCC[n+]1c(C)cc(NCc2ccccc2)c2ccccc21 | 4.39
32 | Nc1ccc(S(=O)(=O)Nc2nccs2)cc1 | > 100
33 | CCOc1ccc(/C=C2/C(=O)N=C(NC(C)=O)N2C)cc1 | > 100

What follows are compounds tested on TK-10 renal (assay: NCI-60 cell line screen, 48 h).

Row | SMILES | TGI [µM]
34 | Cc1nc2sc3ccccc3n2c(=O)c1N=Nc1ccc(Cl)cc1 | > 100
35 | O=C1O[C@H](c2ccc3c(c2)OCO3)[C@H]2CO[C@@H](c3ccc4c(c3)OCO4)[C@@H]12 | > 100
36 | Cc1ccc2c(c1)C(=O)C1(C2)Cc2cccc(C)c2C1=O (configuration not stated) | > 100
37 | O=C1NC(=O)C(CC2CCCCCCCCCCC2=O)C(=O)N1 (configuration not stated) | > 100
38 | Cc1cc(NCc2ccccc2)c2ccccc2[n+]1CCCCCCCCCC[n+]1c(C)cc(NCc2ccccc2)c2ccccc21 | 3.17
39 | Nc1ccc(S(=O)(=O)Nc2nccs2)cc1 | > 100
40 | CCOc1ccc(/C=C2/C(=O)N=C(NC(C)=O)N2C)cc1 | > 100

These compounds were tested on U251 CNS (assay: NCI-60 cell line screen, 48 h).

Row | SMILES | TGI [µM]
41 | Cc1nc2sc3ccccc3n2c(=O)c1N=Nc1ccc(Cl)cc1 | > 100
42 | O=C1O[C@H](c2ccc3c(c2)OCO3)[C@H]2CO[C@@H](c3ccc4c(c3)OCO4)[C@@H]12 | > 100
43 | Cc1ccc2c(c1)C(=O)C1(C2)Cc2cccc(C)c2C1=O (configuration not stated) | > 100
44 | O=C1NC(=O)C(CC2CCCCCCCCCCC2=O)C(=O)N1 (configuration not stated) | > 100
45 | Cc1cc(NCc2ccccc2)c2ccccc2[n+]1CCCCCCCCCC[n+]1c(C)cc(NCc2ccccc2)c2ccccc21 | 0.795
46 | Nc1ccc(S(=O)(=O)Nc2nccs2)cc1 | > 100
47 | CCOc1ccc(/C=C2/C(=O)N=C(NC(C)=O)N2C)cc1 | > 100
